These results are taken from US5616327A (SRI International, priority 1994, dated 1997).

Where no end group is shown, it is not given here.

A word on the inhibition: it is the drop in the measured response relative to a control, in per cent.

This test deals with RNA polymerase-RNA complex ("cores" with transcriptase activity) (Influenza A virus, UniProt P03428+P03431+P03433). Briefly: biochemical. Further details: species or system Influenza virus A/PR/8/34. Particulars: for inhibition at 0.05 µM / inhibition at 0.5 µM / inhibition at 5 µM / inhibition at 50 µM: read-out: % Inhibition (inhibition of polymerase by peptides).

Consider `CC[C@H](C)[C@H](NC(=O)[C@H](CCC(N)=O)NC(=O)[C@@H](N)CCC(=O)O)C(=O)N[C@@H](C)C(=O)N[C@@H](CC(=O)O)C(=O)N[C@@H](CO)C(=O)N[C@@H](CCC(N)=O)C(=O)N[C@@H](Cc1c[nH]cn1)C(=O)N[C@@H](CCCNC(=N)N)C(=O)N[C@@H](CO)C(=O)N[C@@H](Cc1c[nH]cn1)C(=O)N[C@@H](CCCNC(=N)N)C(=O)N[C@@H](CCC(N)=O)C(=O)N[C@@H](CCSC)C(=O)N[C@H](C(=O)O)C(C)C` [Peptide 4], for which the inhibition at 0.05 µM worked out at 38%, the inhibition at 0.5 µM turned out to be 22%, the inhibition at 5 µM turned out to be 23% and the inhibition at 50 µM worked out at 32%.
The matching figures for KREITFHGAKEISLS [Peptide 3]: 9%, 8%, -9% and -30%.
The matching figures for `CC(C)C[C@H](NC(=O)CNC(=O)[C@H](C)NC(=O)[C@H](CO)NC(=O)[C@H](CO)NC(=O)[C@H](CO)NC(=O)[C@@H]1CCCN1C(=O)[C@H](Cc1c[nH]cn1)NC(=O)[C@@H](NC(=O)CN)[C@@H](C)O)C(=O)N[C@@H](CCCCN)C(=O)N[C@@H](CC(N)=O)C(=O)N[C@@H](CC(=O)O)C(=O)N[C@@H](CC(C)C)C(=O)N[C@@H](CC(C)C)C(=O)N[C@@H](CCC(=O)O)C(=O)N[C@@H](CC(N)=O)C(=O)O` [Peptide 5]: 16%, 14%, 1% and -30%.
`CC[C@H](C)[C@H](NC(=O)[C@H](CCC(N)=O)NC(=O)[C@H](CCC(=O)O)NC(=O)[C@H](CS)NC(=O)[C@@H](NC(=O)[C@H](C)NC(=O)[C@@H](N)CS)[C@@H](C)O)C(=O)N[C@@H](C)C(=O)N[C@@H](CC(=O)O)C(=O)N[C@@H](CO)C(=O)N[C@@H](CCC(N)=O)C(=O)N[C@@H](Cc1c[nH]cn1)C(=O)N[C@@H](CCCNC(=N)N)C(=O)N[C@@H](CO)C(=O)N[C@@H](Cc1c[nH]cn1)C(=O)N[C@@H](CCCNC(=N)N)C(=O)N[C@@H](CCC(N)=O)C(=O)N[C@@H](CCSC)C(=O)N[C@H](C(=O)O)C(C)C` [Peptide 6]: the “50% inhibition (concentration, in words)” value is “picomolar range”. For the same compound, under “1 μM, read-out: % Inhibition (inhibition of polymerase by peptide 6)”, the inhibition at 1 µM is over 100%. Also, the inhibition at 10 µM (10 μM, read-out: % Inhibition (inhibition of polymerase by peptide 6)) was determined as 98%. Moreover, the inhibition at 100 µM (100 μM, read-out: % Inhibition (inhibition of polymerase by peptide 6)) is 81%. Besides, for the setting “.001 μM, read-out: % Inhibition (inhibition of polymerase by peptide 6)”, the inhibition at 0.001 µM was found to be 77%. The inhibition at 0.01 µM (.010 μM, read-out: % Inhibition (inhibition of polymerase by peptide 6)) turned out to be 82%. In addition, the inhibition at 0.1 µM (.100 μM, read-out: % Inhibition (inhibition of polymerase by peptide 6)) was found to be 99%.
Consider `CSCC[C@H](NC(=O)[C@H](CC(N)=O)NC(=O)[C@H](CC(N)=O)NC(=O)[C@@H]1CCCN1C(=O)[C@H](CC(=O)O)NC(=O)CNC(=O)[C@H](CC(N)=O)NC(=O)CNC(=O)[C@H](CC(N)=O)NC(=O)[C@H](CC(C)C)NC(=O)[C@H](C)N)C(=O)N[C@@H](CC(=O)O)C(=O)N[C@@H](CCCCN)C(=O)N[C@@H](C)C(=O)N[C@H](C(=O)N[C@@H](CCCCN)C(=O)N[C@@H](CC(C)C)C(=O)N[C@@H](Cc1ccc(O)cc1)C(=O)O)C(C)C` [Peptide 2], for which the inhibition at 0.05 µM was -37%, the inhibition at 0.5 µM is -10%, the inhibition at 5 µM is -20% and the inhibition at 50 µM was -13%.
Turning to LTVPSERGLQRRR [Peptide 1], the inhibition at 0.05 µM is 3%, the inhibition at 0.5 µM turned out to be 2%, the inhibition at 5 µM is 9% and the inhibition at 50 µM is 35%.
